Measurements reported in US11787837B2, “DCHBS-active esters of PEG compounds and their use” (Novo Nordisk A/S, priority 2016, dated 2023).

Experiment: Hydrolytic stability of activated side chains (hydrolysis at pH ~10.3, UPLC/HPLC area comparison at 210 nm)
Type: physicochemical
Conditions: for hydrolytic stability (in words): basic conditions, pH 10.3; for activated side chain still remaining: pH 10.3, hydrolysis times around 1100-1300 minutes
Protocol: 0.1 mmol of each activated side chain was dissolved in 1.0 mL NMP. To this solution was added 5 mL 1M NaHCO3 buffer solution adjusted to pH 10.0 with NaOH. Solution was stirred (pH ˜10.3) with aliquots being taken at different time intervals to determine to which extent the various activated side chains were hydrolysed.
The reaction mixtures were analysed by UPLC (Example no. 2 and E—UPLC_A_1) and HPLC (Example no. 1, B, C, and D—HPLC_A_1), and the percent of hydrolysis for the various side chains was estimated by area comparison in UV detection at 210 nm. In each example, the combined areas for released activation group (peak A) and non-activated side chain (peak B), was compared to area for activated side chain (peak C). The retention times (rt-A, rt-B, and rt-C for the various peaks (peak A, peak B, and peak C) for each side chain are summarised as follows; 1 (rt-A=1.94 min, rt-B=7.18-7.25 min, rt-C=7.48 min, HPLC_A_1), 2 (rt-A=0.48 min, rt-B=2.11 min, rt-C=2.29 min, UPLC_A_1), B (only rt-B detected at time point for analysis), C (rt-A=4.40 min, rt-B=7.25 min, HPLC_A_1), D (rt-A=4.01 min, rt-B=7.25 min, rt-C=10.16 min, HPLC_A_1), E (rt-A=2.08 min, rt-B=2.10 min, rt-C=2.10 min, UPLC_A_1).
The hydrolytic stability of the activated side chains of Examples 1 and 8B to 8D was tested. The hydrolysis protocol from Example 9 was used for the stability test.

[1] = Table 5, hydrolysis time 1380 min, method UPLC_A_4

SMILES: O=C(O)CCCCCCCCCCCCCCCCCCC(=O)NC[C@H]1CC[C@H](C(=O)N[C@@H](CCC(=O)NCCOCCOCC(=O)NCCOCCOCC(=O)ON2C(=O)CCC2=O)C(=O)O)CC1 [Example B, 20-[[4-[[(1S)-1-carboxy-4-[2-[2-[2-[2-[2-[2-(2,5-dioxopyrrolidin-1-yl)oxy-2-oxo-ethoxy]ethoxy]ethylamino]-2-oxo-ethoxy]ethoxy]ethylamino]-4-oxo-butyl]carbamoyl]cyclohexyl]methylamino]-20-oxo-icosanoic acid, reference compound]
- hydrolytic stability (in words): hydrolytically very unstable
- Hydrolysis (%) at pH 10.3 (hydrolysis time 0 min (within a minute), NMP + 1M NaHCO3 buffer, pH ~10.3, HPLC_A_1): Quantitative (more than 99% of the side chain being hydrolysed)

SMILES: COCC(=O)Oc1c(Cl)cc(Cl)cc1S(=O)(=O)O [Example 8B, 3,5-dichloro-2-(2-methoxyacetyl)oxy-benzenesulfonic acid]
- Hydrolysis (%) at pH 10.3 [1]: 96%

SMILES: O=C(O)CCCCCCCCCCCCCCCCCCC(=O)NC[C@H]1CC[C@H](C(=O)N[C@@H](CCC(=O)NCCOCCOCC(=O)NCCOCCOCC(=O)Oc2c(Cl)cccc2Cl)C(=O)O)CC1 [Example D, 20-[[4-[[(1S)-1-carboxy-4-[2-[2-[2-[2-[2-[2-(2,6-dichlorophenoxy)-2-oxo-ethoxy]ethoxy]ethylamino]-2-oxo-ethoxy]ethoxy]ethylamino]-4-oxo-butyl]carbamoyl]cyclohexyl]methylamino]-20-oxo-icosanoic acid, reference compound]
- hydrolytic stability (in words): hydrolyse very fast and almost quantitatively
- Hydrolysis (%) at pH 10.3 (hydrolysis time 2 min, NMP + 1M NaHCO3 buffer, pH ~10.3, HPLC_A_1): 93.4%

SMILES: C#CCOCCOCCOCCOCCC(=O)Oc1c(Cl)cc(Cl)cc1S(=O)(=O)O [Example 8D, 3,5-dichloro-2-[3-[2-[2-(2-prop-2-ynoxyethoxy)ethoxy]ethoxy]propanoyloxy]benzenesulfonic acid]
- Hydrolysis (%) at pH 10.3 (Table 5, hydrolysis time 1440 min, method UPLC_A_5): 67%

SMILES: O=C(O)CCCCCCCCCCCCCCCCC(=O)N[C@@H](CCC(=O)NCCOCCOCC(=O)NCCOCCOCC(=O)Oc1c(Cl)cc(Cl)cc1S(=O)(=O)O)C(=O)O [Example 2, 18-[[(1S)-1-carboxy-4-[2-[2-[2-[2-[2-[2-(2,4-dichloro-6-sulfo-phenoxy)-2-oxo-ethoxy]ethoxy]ethylamino]-2-oxo-ethoxy]ethoxy]ethylamino]-4-oxo-butyl]amino]-18-oxo-octadecanoic acid]
- hydrolytic stability (in words): much more stable against hydrolysis
- Hydrolysis (%) at pH 10.3 (hydrolysis time 1070 min, NMP + 1M NaHCO3 buffer, pH ~10.3, UPLC_A_1): 88.1%
- activated side chain still remaining: approximately 12%

SMILES: O=C(O)CCCCCCCCCCCCCCCCCCC(=O)NC[C@H]1CC[C@H](C(=O)N[C@@H](CCC(=O)NCCOCCOCC(=O)NCCOCCOCC(=O)Oc2c(Cl)cc(Cl)cc2S(=O)(=O)O)C(=O)O)CC1 [Example 1, 20-[[4-[[(1S)-1-carboxy-4-[2-[2-[2-[2-[2-[2-(2,4-dichloro-6-sulfo-phenoxy)-2-oxo-ethoxy]ethoxy]ethylamino]-2-oxo-ethoxy]ethoxy]ethylamino]-4-oxo-butyl]carbamoyl]cyclohexyl]methylamino]-20-oxo-icosanoic acid]
- Hydrolysis (%) at pH 10.3 (Table 5, hydrolysis time 1269 min, method UPLC_A_1): 88.1%
- hydrolytic stability (in words): much more stable against hydrolysis
- Hydrolysis (%) at pH 10.3 (hydrolysis time 1269 min, NMP + 1M NaHCO3 buffer, pH ~10.3, HPLC_A_1): 88.1%
- activated side chain still remaining: approximately 12%

SMILES: CN(C)S(=O)(=O)c1cc(Cl)cc(Cl)c1OC(=O)COCCOCCNC(=O)COCCOCCNC(=O)CC[C@H](NC(=O)CCCCCCCCCCCCCCCCC(=O)O)C(=O)O [Example 8C]
- Hydrolysis (%) at pH 10.3 [1]: 60%

SMILES: O=C(O)CCCCCCCCCCCCCCCCC(=O)N[C@@H](CCC(=O)NCCOCCOCC(=O)NCCOCCOCC(=O)Oc1c(Cl)cc(S(=O)(=O)O)cc1Cl)C(=O)O [Example E, 18-[[(1S)-1-carboxy-4-[2-[2-[2-[2-[2-[2-(2,6-dichloro-4-sulfo-phenoxy)-2-oxo-ethoxy]ethoxy]ethylamino]-2-oxo-ethoxy]ethoxy]ethylamino]-4-oxo-butyl]amino]-18-oxo-octadecanoic acid, reference compound]
- Hydrolysis (%) at pH 10.3 (hydrolysis time 2.5 min, NMP + 1M NaHCO3 buffer, pH ~10.3, UPLC_A_1): Quantitative (more than 99% of the side chain being hydrolysed)

SMILES: O=C(O)CCCCCCCCCCCCCCCCCCC(=O)NC[C@H]1CC[C@H](C(=O)N[C@@H](CCC(=O)NCCOCCOCC(=O)NCCOCCOCC(=O)Oc2ccc(Cl)cc2Cl)C(=O)O)CC1 [Example C, 20-[[4-[[(1S)-1-carboxy-4-[2-[2-[2-[2-[2-[2-(2,4-dichlorophenoxy)-2-oxo-ethoxy]ethoxy]ethylamino]-2-oxo-ethoxy]ethoxy]ethylamino]-4-oxo-butyl]carbamoyl]cyclohexyl]methylamino]-20-oxo-icosanoic acid, reference compound]
- hydrolytic stability (in words): hydrolyse very fast and almost quantitatively
- Hydrolysis (%) at pH 10.3 (hydrolysis time 0.16 min, NMP + 1M NaHCO3 buffer, pH ~10.3, HPLC_A_1): Quantitative (more than 99% of the side chain being hydrolysed)
